The text below walks through data of US8017828B2, “Utilization of rare sugars in plant or microorganism” (Shikoku Research Institute Incorporated, priority 2004, dated 2011).

Experiment [1] concerns seeds of vegetables, ornamental plants, herbs, fruit trees, grains and feed crops. The experiment in a line: Seed germination, continuous treatment (Experiment 1). It is filed as in vivo. The text has this:
Seeds of vegetables (11 families and 51 species or varieties); ornamental plants (19 families and 47 species or varieties); […] (4 families and 14 species or varieties); fruit trees (3 families and 3 species or varieties); grains (1 family and 3 species or varieties); and feed crops (1 family and 3 species or varieties) were continuously treated with any of 4 types of solutions of deionized water (control), 1% D-fructose, 1% D-psicose and 0.5% D-fructose+0.5% D-psicose and germinated under the condition of 25° C., 35 μmol·m^−2·s^−1, and 16-hour lighting or 16-hour dark. As for the number of seeds, 50 seeds were used for each solution basically, and when the number of seeds was small, the seeds were distributed in such a manner that the number of seeds for each solution became equal. The seeds were sown in a dish with a diameter of 9 cm having a filter paper placed therein or when the seeds were large, they were sown in a styrol container with a diameter of 10 cm and a height of 45 mm. Then, 10 ml or 50 ml of any of the solutions was poured therein, and deionized water was suitably added depending on the transpiration.

For experiment [2], the system named is Brassica rapa var. amplexicaulis (variety: “Haru Ichiban”). Put plainly: Foliar spraying of sugar on Brassica rapa var. amplexicaulis. It is filed as in vivo. The note with it: 0.5% solution sprayed; for Terminal bud weight: control (water) 3.0; for Stem diameter: control (water) 22.8; for Number of lateral buds: control (water) 32.3; for Plant length: control (water) 49.3; for Total weight of lateral buds: control (water) 235.3. The text has this: Brassica rapa var. amplexicaulis is a vegetable in the Brassica family, and flower buds are harvested and used. As the same species of vegetables, broccoli, cauliflower and the like are exemplified, which are important horticultural crops. As for such a vegetable, development of flower buds has a large effect on the crop yield. Therefore, during the house cultivation of Brassica rapa var. amplexicaulis (variety: “Haru Ichiban”), foliar spraying of a sugar solution at a concentration of 0.5% (w/v) was carried out and effects on the growth and the development of flower buds were examined. The seeds of Brassica rapa var. amplexicaulis were sown in a 128-cell tray on Oct. 23, 2003 and raised for about 20 days. Then, the raised seedlings were transplanted for permanent planting with a planting distance of 40 cm on two rows with an inter row space of 50 cm in separate beds filled with soil for cultivation “Hana to Yasai no Tsuchi (garden soil for flowers and vegetables)” (Kurokawa Shubyo En) on Nov. 12, 2003. The cultivation was carried out by a simple fertigation system, and irrigation was carried out for 1 hour on a daily basis with a 2,000-fold dilution of Hyponex through an irrigation tube. The cultivation was carried out in a vinyl house without heating with side windows open. From Dec. 18, 2003, water or a 0.5% (w/v) sugar solution was sprayed onto the whole plant on a three times weekly basis. As for the types of sugars, D-glucose, D-fructose and D-psicose were used and five plants were cultivated for each test plot. On Feb. 23, 2004, three plants of medium size were harvested and a survey was carried out. The survey items were plant length, stem diameter, number of lateral buds, terminal bud weight, total weight of lateral buds and the like.

Another experiment concerns Primula. The experiment in a line: Drying stress of Primula after foliar spraying. It is filed as in vivo. The note with it: foliar spraying of 0.2% (w/v) solution. On the procedure: By using Primula, an effect of spraying D-psicose on a drying stress was examined. By using commercially available Primula planted in a pot, foliar spraying of water, a 0.2% (w/v) D-glucose solution or a 0.2% (w/v) D-psicose solution was carried out on the whole plant. After irrigation was sufficiently carried out from the lower part of the pot, the plant was left in a condition that no irrigation was carried out, and a wilted condition thereof was observed.

Experiment [3] relates to strawberry plant (variety: “smile ruby”). Put plainly: Growth of strawberry seedlings in tissue culture medium with sugar. It is filed as in vivo. The note with it: for Underground part weight / Number of lateral buds / Aerial part weight / Root length: 0.1% (w/v) in medium; for Underground part weight: without addition 0.5; for Number of lateral buds: without addition 0.6; for Aerial part weight: without addition 1.8; for Root length: without addition 8.7; for Plant length: 0.1% (w/v) in ½ strength MS medium, without addition 3.0. On the procedure:
Seedlings of a strawberry plant (variety: “smile ruby”) obtained by meristem culture under sterile conditions were used in an experiment.
As for the strawberry, by using ½ strength MS medium supplemented with 0.1% (w/v) D-psicose or D-glucose, the seedling plants were aseptically transplanted on Oct. 14, 2003, and then, cultivation was carried out in a culture chamber at 25° C. and 5,000 Lux (12-hour day length). Then, on Jan. 20, 2004, a survey was carried out with regard to the growth conditions of aerial part and underground part, the number of lateral buds and the like.

Experiment [4] concerns Aspergillus niger, Cladosporium cladosporioides and Penicillium chrysogenum. The experiment in a line: Mycelial elongation of filamentous fungi on agar with rare sugar. It is filed as cell-based. As to conditions: 0.05% (w/v) in agar medium, 25° C., 4 days. On the procedure: By using as targets, Aspergillus niger, Cladosporium cladosporioides and Penicillium chrysogenum, which are typical filamentous fungi and generally seen in a living environment, an effect of a rare sugar on mycelial elongation was examined.
As the test fungal strains, NBRC 4066 strain, NBRC 4459 strain and NBRC 4626 strain were used.
Each test fungal strain was cultured on a potato dextrose agar medium at 25° C. for 7 days, and one in which the mycelium extended over the surface of the dish was pushed out along with the agar medium in such a manner that the agar medium was in a disc form with a diameter of 1.1 cm, which was placed at the center of a dish filled with an agar medium (1% Bacto agar) supplemented with any of a variety of rare sugars (allitol, D-altrose, L-mannose, L-galactose, D-tagatose, D-sorbose, D-psicose, D-allose, D-glucose and D-fructose) at 0.05% (w/v) and cultured at 25° C. for 4 days. After the cultivation, the length of the mycelium extending on the surface of the culture medium was measured. Two culture media were prepared for each test plot, and the mycelial length represents the average thereof.

Another experiment concerns Salsola komarovii. Put plainly: Seed germination, short-time and continuous treatment (Experiment 2). It is filed as in vivo. The note with it: for germination rate: immersed in 1% solution for 24 hours, in the end, DW 28%. On the procedure: In order to clarify an effect of a short-time treatment, 50 seeds of Salsola komarovii, tomato (Home Momotaro) and sunny lettuce (Red Wave), and 20 seeds of morning glory (Tairin Zaki Kongo) were immersed in any of deionized water, 1% D-psicose, 1% D-allose and 1% L-galactose for 24 hours (25° C., dark), respectively, then, they were lightly washed with deionized water. Then, the seeds were sown in a dish with a diameter of 9 cm having a filter paper placed therein, and germinated under the same condition by poring 5 to 10 ml of deionized water therein. Further, for the comparison, a continuous treatment with 1% D-psicose was carried out in accordance with the same procedure.

[5] abbreviates: 1% continuous, 41 species listed.

The structures appear in SMILES notation.

For the compound `O=C(CO)[C@@H](O)[C@H](O)[C@H](O)CO` [D-fructose, reference compound], the “effect on inhibition of germination by D-psicose” value in experiment [1] (0.5% D-fructose+0.5% D-psicose, 32 species listed) was “Mitigated”. Further, the germination result in experiment [1] (setting [5]) is “Inhibited”. In addition, in experiment [1] (1% continuous, Lemon Balm and Green Pea (2 species)), the germination entry was “Promoted”. In experiment [2], the Terminal bud weight stood at 7.4 g, the Stem diameter came to 19.9 mm, the “Number of lateral buds” value turned out to be 41.3 and the Plant length is reported as 55.8 cm. Also, in experiment [2], the “Total weight of lateral buds” value is on record as 231.1 g.

For `O=C[C@H](O)[C@@H](O)[C@H](O)[C@H](O)CO` [D-glucose, reference compound], in experiment [2], the Terminal bud weight is 5.7 g, the Stem diameter is 20.6 mm, the “Number of lateral buds” value is listed as 32.0 and the Plant length is recorded as 56.3 cm. Also, the “Total weight of lateral buds” value in experiment [2] stood at 198.1 g. In addition, in the experiment on Primula, the “time until wilt of the whole plant without irrigation” value is “one day”. Further, in experiment [3], the Underground part weight was 1.2 g, the “Number of lateral buds” value is 1.0, the Aerial part weight worked out at 3.0 g and the Root length was 8.7 cm. Also, in experiment [3], the Plant length came out at 4.3 cm.

On to `O=C(CO)[C@H](O)[C@H](O)[C@H](O)CO` [D-psicose], for which the germination result in experiment [1] (1% continuous, 32 species listed) is listed as “Inhibition of Germination”. Also, the germination result in experiment [1] (setting [5]) is “Inhibited”. Also, the elongation of roots result in experiment [1] (1% continuous, Diospyros kaki) is listed as “inhibited”. Further, the germination entry in experiment [1] (1% continuous, Myosotis scorpioides and Chinese lantern plant (2 species)) is on record as “Significantly Inhibited”. Also, the germination result in experiment [1] (1% continuous, Salsola komarovii, Diospyros kaki, Clarkia amoena (3 species)) is given as “Not Affected or was Promoted Slightly”. The germination result in experiment [1] (many plants in the Brassica family) is recorded as “inhibited”. The “effect on mycelial elongation” value in experiment [4] is on record as “have an effect of inhibiting mycelial elongation”. Also, in experiment [2], the Terminal bud weight was determined as 8.8 g, the Stem diameter is on record as 26.9 mm, the “Number of lateral buds” value worked out at 43.0 and the Plant length came out at 61.2 cm. The “Total weight of lateral buds” value in experiment [2] worked out at 225.0 g. In addition, the germination result in the experiment on Salsola komarovii (continuous treatment with 1%) is listed as “promoted”. In the experiment on Salsola komarovii, this compound gave a germination rate of 28%. Moreover, the “time until wilt of the whole plant without irrigation” value in the experiment with Primula worked out at 2 days. Besides, in experiment [3], the Underground part weight was 1.9 g, the “Number of lateral buds” value is recorded as 1.3, the Aerial part weight came out at 3.1 g and the Root length turned out to be 7.2 cm. The compound further came in with a Plant length in experiment [3] of 4.5 cm.

Consider `O=C[C@H](O)[C@H](O)[C@H](O)[C@H](O)CO` [D-allose], for which the “effect on mycelial elongation” value in experiment [4] is on record as “have an effect of inhibiting mycelial elongation”. For the same compound, in experiment [2], the Terminal bud weight amounted to 7.9 g, the Stem diameter is recorded as 23.6 mm, the “Number of lateral buds” value is 38.0 and the Plant length worked out at 60.7 cm. Besides, the “Total weight of lateral buds” value in experiment [2] was 222.5 g. The compound also gave a germination rate in the experiment with Salsola komarovii of 16%.
